The text below walks through data of patent EP1403247A1, “N-Alkanoylphenylalanine derivatives” (F.HOFFMANN-LA ROCHE AG, priority 1997, dated 1999).

Assay [1] concerns the target T1, VLA-4 (a4b1 integrin) (Homo sapiens, UniProt P05556+P13612).
T1 construct: followed by 10 µl of Ramos cell-derived VLA-4; endogenous in cells; host or cells: Ramos cells (VLA-4 derived from them; method of extraction or purification not described)
Description: VLA-4 / VCAM-1 Screening Assay (solid-phase, dual antibody ELISA). Particulars: Ramos cell-derived VLA-4 binding to immobilized recombinant human VCAM-1; 1 mM MnCl2, 2 hr at 37 °C. As to the method:
VLA-4 / VCAM-1 Screening Assay
VLA-4 antagonist activity, defined as ability to compete for binding to immobilized VCAM-1, was quantitated using a solid-phase, dual antibody ELISA. VLA-4 (a4b1 integrin) bound to VCAM-1 is detected by a complex of anti-integrin b1 antibody: HRP-conjugated anti-mouse IgG: chromogenic substrate (K-Blue). Initially, this entailed coating 96 well plates (Nunc Maxisorp) with recombinant human VCAM-1 (0.4 µg in 100 µl PBS), sealing each plate and then allowing the plates to stand at 4°C for ^~18 hr. […] On the day of assay, all plates are washed twice with VCAM Assay Buffer (200 µl/well of 50 mM Tris-HCl, 100 mM NaCl, 1 mM MnCl2, 0.05% Tween 20; pH 7.4). Test compounds are dissolved in 100% DMSO and then diluted 1:20 in VCAM Assay Buffer supplemented with 1mg/mL BSA (i.e., final DMSO = 5%). […] 100 µl per well of each dilution is added to the VCAM-coated plates, followed by 10 µl of Ramos cell-derived VLA-4. These plates are sequentially mixed on a platform shaker for 1 min, incubated for 2 hr at 37 °C, and then washed four times with 200 µl/well VCAM Assay Buffer. 100 µl of mouse anti-human integrin b1 antibody is added to each well (0.6 µg/mL in VCAM Assay Buffer + 1mg/mL BSA) and allowed to incubate for 1 hr at 37°C. At the conclusion of this incubation period, all plates are washed four times with VCAM Assay Buffer (200 µl/well). A corresponding second antibody, HRP-conjugated goat anti-mouse IgG (100 µl per well @ 1:800 dilution in VCAM Assay Buffer + 1mg/mL BSA), is then added to each well, followed by a 1 hr incubation at room temperature and concluded by three washes (200µl/well) with VCAM Assay Buffer. Color development is initiated by addition of 100 µl K-Blue per well (15 min incubation, room temp) and terminated by addition of 100 µl Red Stop Buffer per well. […] Results are calculated as % inhibition of total binding (i.e., VLA-4 + VCAM-1 in the absence of test compound).
(In general: In an ELISA, binding on a coated surface is turned into a signal by an enzyme label.)

Assay [2] addresses T1, VLA-4 (a4b1 integrin). Description: Ramos (VLA-4) / VCAM-1 Cell-Based Screening Assay (Ramos-VCAM-1 cell adhesion assay). As to conditions: Calcein-AM labeled Ramos cells adhering to immobilized recombinant human VCAM-1; 45 min at room temperature. From the text: Ramos (VLA-4) / VCAM-1 Cell-Based Screening Assay Protocol
Calcein-AM was purchased from Molecular Probes Inc.
VLA-4 (a4b1 integrin) antagonist activity, defined as ability to compete with cell-surface VLA-4 for binding to immobilized VCAM-1, was quantitated using a Ramos-VCAM-1 cell adhesion assay. Ramos cells bearing cell-surface VLA-4, were labeled with a fluorescent dye (Calcein-AM) and allowed to bind VCAM-1 in the presence or absence of test compounds.
Initially, this entailed coating 96 well plates (Nunc Maxisorp) with recombinant human VCAM-1 (100 ng in 100 µl PBS), sealing each plate and allowing the plates to stand at 4°C for ~18 hr. The VCAM-coated plates were subsequently washed twice with 0.05% Tween-20 in PBS, and then blocked for 1hr (room temperature) with 200 µl of Blocking Buffer (1% BSA/0.02% thimerosal) to reduce non-specific binding. Following the incubation with Blocking Buffer, plates were inverted, blotted and the remaining buffer aspirated. Each plate was then washed with 300 µl PBS, inverted and the remaining PBS aspirated.
Test compounds were dissolved in 100% DMSO and then diluted 1:25 in VCAM Cell Adhesion Assay Buffer (4 mM CaCl2, 4 mM MgCl2 in 50 mM TRIS-HCl, pH 7.5) (final DMSO = 4%). […] 100 µl/well of each dilution was added to the VCAM-coated plates, followed by 100 µl of Ramos cells (200,000 cells/well in 1% BSA/PBS). […] Plates were inverted to remove non-adherent cells, blotted and 300 µl/well PBS added. Plates were again inverted, blotted and the remaining buffer gently aspirated. 100 µl Lysis Buffer (0.1% SDS in 50 mM TRIS-HCl, pH 8.5) was added to each well and agitated for 2 min on a rotary shaking platform.

T1 sequence (P13612 34-1032): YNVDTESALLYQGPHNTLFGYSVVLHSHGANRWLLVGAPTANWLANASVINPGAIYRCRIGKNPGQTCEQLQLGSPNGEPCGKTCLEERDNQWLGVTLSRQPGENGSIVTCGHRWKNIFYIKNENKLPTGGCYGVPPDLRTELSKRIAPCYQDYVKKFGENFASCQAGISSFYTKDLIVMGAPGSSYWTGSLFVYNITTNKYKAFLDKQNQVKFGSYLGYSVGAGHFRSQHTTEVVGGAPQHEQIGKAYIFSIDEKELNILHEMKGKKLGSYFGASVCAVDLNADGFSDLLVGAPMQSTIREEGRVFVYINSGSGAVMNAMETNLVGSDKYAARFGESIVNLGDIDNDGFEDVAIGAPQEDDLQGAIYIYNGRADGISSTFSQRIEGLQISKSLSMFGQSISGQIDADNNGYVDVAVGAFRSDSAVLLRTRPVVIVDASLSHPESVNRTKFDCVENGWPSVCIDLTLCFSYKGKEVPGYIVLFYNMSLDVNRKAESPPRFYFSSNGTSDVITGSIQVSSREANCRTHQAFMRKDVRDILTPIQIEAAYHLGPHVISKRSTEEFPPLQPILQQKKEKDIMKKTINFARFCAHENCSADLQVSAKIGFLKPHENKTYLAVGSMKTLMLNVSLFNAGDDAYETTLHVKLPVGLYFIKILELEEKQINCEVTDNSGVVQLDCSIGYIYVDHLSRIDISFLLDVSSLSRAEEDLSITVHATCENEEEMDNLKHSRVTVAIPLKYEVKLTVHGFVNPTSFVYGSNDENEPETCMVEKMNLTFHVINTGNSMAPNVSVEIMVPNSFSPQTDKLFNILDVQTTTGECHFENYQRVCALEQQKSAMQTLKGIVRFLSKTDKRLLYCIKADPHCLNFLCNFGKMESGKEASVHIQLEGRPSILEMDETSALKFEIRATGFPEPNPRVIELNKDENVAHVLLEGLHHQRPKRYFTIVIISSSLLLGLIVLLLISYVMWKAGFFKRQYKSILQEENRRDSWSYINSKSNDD
T1 sequence (P05556 21-798): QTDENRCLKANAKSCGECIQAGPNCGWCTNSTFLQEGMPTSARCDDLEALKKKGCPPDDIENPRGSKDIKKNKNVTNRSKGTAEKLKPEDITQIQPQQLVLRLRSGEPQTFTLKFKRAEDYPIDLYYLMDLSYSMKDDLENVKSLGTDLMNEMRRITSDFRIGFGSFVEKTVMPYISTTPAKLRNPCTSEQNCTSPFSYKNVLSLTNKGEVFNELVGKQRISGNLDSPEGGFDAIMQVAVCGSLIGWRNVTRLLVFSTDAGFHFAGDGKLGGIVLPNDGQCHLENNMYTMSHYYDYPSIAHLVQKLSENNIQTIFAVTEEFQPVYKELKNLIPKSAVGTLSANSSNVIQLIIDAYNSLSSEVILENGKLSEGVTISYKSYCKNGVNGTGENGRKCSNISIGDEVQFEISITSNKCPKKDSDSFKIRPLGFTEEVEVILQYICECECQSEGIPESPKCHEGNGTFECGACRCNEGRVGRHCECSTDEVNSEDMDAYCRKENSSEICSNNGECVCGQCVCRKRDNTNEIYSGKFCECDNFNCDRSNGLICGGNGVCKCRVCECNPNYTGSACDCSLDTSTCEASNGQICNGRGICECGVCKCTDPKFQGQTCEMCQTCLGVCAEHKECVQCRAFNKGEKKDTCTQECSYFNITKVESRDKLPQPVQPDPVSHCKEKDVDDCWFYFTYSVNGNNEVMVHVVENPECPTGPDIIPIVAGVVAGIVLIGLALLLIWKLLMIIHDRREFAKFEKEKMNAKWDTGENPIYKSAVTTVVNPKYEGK

On to `O=C(NC(Cc1ccc(NC(=O)c2c(Cl)cccc2Cl)cc1)C(=O)O)c1ccccc1Cc1ccccc1` [Example 31, 4-[[(2,6-dichlorophenyl)carbonyl]amino]-N-[[(2-phenylmethyl)phenyl]carbonyl]-L-phenylalanine], for which, in assay [1], the IC50 (in general, the point on the concentration scale where inhibition reaches its midpoint) worked out at 0.51 nM.
Turning to `COc1ccc(Br)c(C(=O)NC(Cc2ccc(NC(=O)c3c(C)ccnc3C)cc2)C(=O)O)c1` (stereo not drawn) [Example 108], the IC50 was 0.63 nM in assay [1] and 22 nM in assay [2].
In the same order, the values of `Cc1cc(CC(NC(=O)c2c(C)cccc2Cl)C(=O)O)ccc1NC(=O)CCc1cccc(O)c1` (stereo not drawn) [Example 120] are 4.5 nM and 439 nM.
Turning to `Cc1cc(CC(NC(=O)c2c(C)cccc2Cl)C(=O)O)ccc1NC(=O)Cc1cccc(O)c1` (stereo not drawn) [Example 121], the IC50 in assay [1] was 5.8 nM; in assay [2], 515 nM.
The like results for `Cc1cc(CC(NC(=O)c2c(C)cccc2Cl)C(=O)O)ccc1NC(=O)c1c(Cl)cccc1Cl` (stereo not drawn) [Example 123] were, in that order, 1.7 nM and 316 nM.
